Experimental data from patent publication US12495798B2, “Nicotinamide compound and herbicidal composition comprising compound” (KOREA RESEARCH INSTITUTE OF CHEMICAL TECHNOLOGY, priority 2019, dated 2025).

What was measured:
Type in all cases: in vivo
sorghum [1] = assay: Herbicidal activity test against upland field weeds (foliar treatment test); design: key to Foliar treatment herbicidal activity, Sorghum: 0 (no control); 100 (complete control); details: scale 0-100
Procedure, shortened: (§1)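 Weeds were raised from seed or rootstocks in horticultural soil in a greenhouse (30±5° C., 14/10 h light/dark), then foliage was hand-sprayed with compound at 50 or 75 g a.i./ha in 50% acetone with 0.1% Tween-20. Control was scored visually 0–100 against untreated plants after 14 days, or 21 if needed.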

barnyard grass [2] = assay: as above; design: key to Foliar treatment herbicidal activity, barnyard grass: 0 (no control); 100 (complete control); details: scale 0-100
Procedure, shortened: as §1

quack grass [3] = assay: as above; design: key to Foliar treatment herbicidal activity, quack grass: 0 (no control); 100 (complete control); details: scale 0-100
Procedure, shortened: as §1

crabgrass [4] = assay: as above; details: Digitaria sanguinalis, scale 0-100; for pest or weed control at 50 g/ha: 50 g ai/ha
Procedure, shortened: as §1

fall panicum [5] = assay: as above; details: Panicum dichotomiflorum, scale 0-100; for pest or weed control at 50 g/ha: 50 g ai/ha
Procedure, shortened: as §1

black nightshade [6] = assay: as above; design: key to Foliar treatment herbicidal activity, black nightshade: 0 (no control); 100 (complete control); details: scale 0-100
Procedure, shortened: as §1

indian jointvetch [7] = assay: as above; details: scale 0-100; for pest or weed control at 50 g/ha: 50 g ai/ha
Procedure, shortened: as §1

velvetleaf [8] = assay: as above; design: key to Foliar treatment herbicidal activity, velvet leaf: 0 (no control); 100 (complete control); details: for pest or weed control at 50 g/ha: Abutilon theophrasti, 50 g ai/ha, scale 0-100, read-out: Foliar treatment herbicidal activity, velvet leaf
Procedure, shortened: as §1

cocklebur [9] = assay: as above; details: Xanthium strumarium, scale 0-100; for pest or weed control at 50 g/ha: 50 g ai/ha
Procedure, shortened: as §1

bindweed [10] = assay: as above; design: key to Foliar treatment herbicidal activity, Bindweed: 0 (no control); 100 (complete control); details: scale 0-100
Procedure, shortened: as §1

sorghum [11] = assay: Herbicidal activity test against upland field weeds (soil treatment test); design: key to Soil treatment herbicidal activity, Sorghum: 0 (no control); 100 (complete control); details: scale 0 (no control) to 100 (complete control); for Soil treatment herbicidal activity, Sorghum: 50 g ai/ha
Procedure, shortened: (§2)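 Pre-emergence test: seeds or rootstocks were sown in fertilized sandy loam, and the next day the soil surface was sprayed with compound at 50 or 75 g a.i./ha in 50% acetone/0.1% Tween-20. Plants were grown in a greenhouse (30±5 °C, 14/10 h light/dark), then visually scored 0–100 against untreated at 14 d (21 d if needed).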

barnyard grass [12] = assay: as above; design: key to Soil treatment herbicidal activity, barnyard grass: 0 (no control); 100 (complete control); details: scale 0 (no control) to 100 (complete control)
Procedure, shortened: as §2

quack grass [13] = assay: as above; design: key to Soil treatment herbicidal activity, quack grass: 0 (no control); 100 (complete control); details: scale 0 (no control) to 100 (complete control)
Procedure, shortened: as §2

crabgrass [14] = assay: as above; design: key to Soil treatment herbicidal activity, Crabgrass: 0 (no control); 100 (complete control); details: 50 g ai/ha, scale 0 (no control) to 100 (complete control)
Procedure, shortened: as §2

fall panicum [15] = assay: as above; design: key to Soil treatment herbicidal activity, Fall panicum: 0 (no control); 100 (complete control); details: scale 0 (no control) to 100 (complete control)
Procedure, shortened: as §2

black nightshade [16] = assay: as above; design: key to Soil treatment herbicidal activity, black nightshade: 0 (no control); 100 (complete control); details: scale 0 (no control) to 100 (complete control)
Procedure, shortened: as §2

indian jointvetch [17] = assay: as above; design: key to Soil treatment herbicidal activity, Indian jointvetch: 0 (no control); 100 (complete control); details: scale 0 (no control) to 100 (complete control)
Procedure, shortened: as §2

velvetleaf [18] = assay: as above; design: key to Soil treatment herbicidal activity, velvet leaf: 0 (no control); 100 (complete control); details: scale 0 (no control) to 100 (complete control)
Procedure, shortened: as §2

cocklebur [19] = assay: as above; design: key to Soil treatment herbicidal activity, Cocklebur: 0 (no control); 100 (complete control); details: scale 0 (no control) to 100 (complete control)
Procedure: Experimental Example 2: Herbicidal Activity Test Against Upland Field Weeds (Soil Treatment Test) Soil treatment was performed as follows: After filling a square plastic pot having a surface area of 350 cm^2 with sandy loam mixed with 1 g per pot (350 cm^2) of horticultural mixed fertilizer (N:P:K=11:10:11), seeds (10˜15 grains) or rootstocks (2 pieces) of 5 kinds of grassy weeds of sorghum, barnyard grass, quack grass, crabgrass, fall panicum, and 5 kinds of broadleaf weeds of black nightshade, indian jointvetch, velvetleaf, cocklebur, bindweed, which had been stored in a low temperature (6° C.), were sown. The day after sowing, test compound solutions were made by diluting with a preparation solution (including 50% acetone, 0.1% Tween-20) so that the final treatment amount of the test compounds was 50 or 75 g a.i./ha. The prepared test compound solution was used for treating soil surface by hand-spraying 14 mL per pot in a fume hood. After the treatment, it was managed under the same greenhouse conditions (average temperature 30±5° C., light/dark=14/10 hours), and after 14 days (after 21 days if necessary), the external symptoms and efficacy were investigated according to the scale of 0 (no control) to 100 (complete control). The results of Table 8 were obtained by evaluating weed control value to the untreated control by conducting visual assessment.

bindweed [20] = assay: as above; design: key to Soil treatment herbicidal activity, Bindweed: 0 (no control); 100 (complete control); details: scale 0 (no control) to 100 (complete control); for Soil treatment herbicidal activity, Bindweed: 50 g ai/ha
Procedure, shortened: as §2

With `CCON(Cc1nnn(C)n1)c1nc(C(F)(F)F)ccc1C(=O)Nc1nnnn1C` [Compound No. 2-31, 2-(ethoxy((2-methyl-2H-tetrazol-5-yl)methyl)amino)-N-(1-methyl-1H-tetrazol-5-yl)-6-(trifluoromethyl)nicotinamide] as the compound, how does the “Foliar treatment herbicidal activity, Sorghum” value (sorghum [1]; 50 g ai/ha) read?
Its value is 0.

And the pest or weed control at 50 g/ha (barnyard grass [2]; Echinochloa crus-galli, 50 g ai/ha)?
The pest or weed control at 50 g/ha was 90%.

And the “Foliar treatment herbicidal activity, quack grass” value (quack grass [3]; 50 g ai/ha)?
Its value is 0.

And the pest or weed control at 50 g/ha (crabgrass [4])?
Its pest or weed control at 50 g/ha is 60%.

And the pest or weed control at 50 g/ha (fall panicum [5])?
Its pest or weed control at 50 g/ha is 40%.

And the “Foliar treatment herbicidal activity, black nightshade” value (black nightshade [6]; 50 g ai/ha)?
The value was 100.

And the pest or weed control at 50 g/ha (indian jointvetch [7])?
The pest or weed control at 50 g/ha was 40%.

What about the pest or weed control at 50 g/ha (velvetleaf [8]) of the same compound?
The pest or weed control at 50 g/ha was 70%.

And the pest or weed control at 50 g/ha (cocklebur [9])?
Its pest or weed control at 50 g/ha is 70%.

What about the “Foliar treatment herbicidal activity, Bindweed” value (bindweed [10]; 50 g ai/ha) of the same compound?
The value was 0.

What about the “Soil treatment herbicidal activity, Sorghum” value (sorghum [11]) of the same compound?
Its value is 0.

What about the “Soil treatment herbicidal activity, barnyard grass” value (barnyard grass [12]; 50 g ai/ha) of the same compound?
Its value is 100.

What about the “Soil treatment herbicidal activity, quack grass” value (quack grass [13]; 50 g ai/ha) of the same compound?
Its value is 0.

And the pest or weed control at 50 g/ha (crabgrass [14]; Digitaria sanguinalis)?
The pest or weed control at 50 g/ha was 98%.

What about the pest or weed control at 50 g/ha (fall panicum [15]; Panicum dichotomiflorum, 50 g ai/ha) of the same compound?
Its pest or weed control at 50 g/ha is 95%.

What about the “Soil treatment herbicidal activity, black nightshade” value (black nightshade [16]; 50 g ai/ha) of the same compound?
The value was 100.

What about the pest or weed control at 50 g/ha (indian jointvetch [17]; 50 g ai/ha) of the same compound?
Its pest or weed control at 50 g/ha is 98%.

And the “Soil treatment herbicidal activity, velvet leaf” value (velvetleaf [18]; 50 g ai/ha)?
Its value is 100.

What about the pest or weed control at 50 g/ha (cocklebur [19]; Xanthium strumarium, 50 g ai/ha) of the same compound?
Its pest or weed control at 50 g/ha is 30%.

And the “Soil treatment herbicidal activity, Bindweed” value (bindweed [20])?
The value was 0.

How did the plant injury at 50 g/ha (sorghum [1]; Sorghum, 50 g ai/ha) turn out when `Cn1nnc(CSCc2nc(C(F)F)ccc2C(=O)N(C(=O)c2ccccc2)c2nnnn2C)n1` [Compound No. 2-112, N-benzoyl-6-(difluoromethyl)-N-(1-methyl-1H-tetrazol-5-yl)-2-((((2-methyl-2H-tetrazol-5-yl)methyl)thio)methyl)nicotinamide] was run?
The plant injury at 50 g/ha was 50%.

What about the “Foliar treatment herbicidal activity, barnyard grass” value (barnyard grass [2]; 50 g ai/ha) of the same compound?
Its value is 100.

And the “Foliar treatment herbicidal activity, quack grass” value (quack grass [3]; 50 g ai/ha)?
The value was 0.

And the pest or weed control at 50 g/ha (crabgrass [4])?
The pest or weed control at 50 g/ha was 90%.

And the pest or weed control at 50 g/ha (fall panicum [5])?
The pest or weed control at 50 g/ha was 70%.

And the “Foliar treatment herbicidal activity, black nightshade” value (black nightshade [6]; 50 g ai/ha)?
The value was 100.

What about the pest or weed control at 50 g/ha (indian jointvetch [7]) of the same compound?
The pest or weed control at 50 g/ha was 95%.

What about the pest or weed control at 50 g/ha (velvetleaf [8]) of the same compound?
The pest or weed control at 50 g/ha was 90%.

And the pest or weed control at 50 g/ha (cocklebur [9])?
Its pest or weed control at 50 g/ha is 98%.

What about the pest or weed control at 50 g/ha (bindweed [10]; 50 g ai/ha) of the same compound?
The pest or weed control at 50 g/ha was 98%.

And the “Soil treatment herbicidal activity, Sorghum” value (sorghum [11])?
Its value is 0.

And the “Soil treatment herbicidal activity, barnyard grass” value (barnyard grass [12]; 50 g ai/ha)?
Its value is 0.

And the “Soil treatment herbicidal activity, quack grass” value (quack grass [13]; 50 g ai/ha)?
Its value is 0.

What about the “Soil treatment herbicidal activity, Crabgrass” value (crabgrass [14]) of the same compound?
Its value is 0.

And the “Soil treatment herbicidal activity, Fall panicum” value (fall panicum [15]; 50 g ai/ha)?
Its value is 0.

What about the pest or weed control at 50 g/ha (black nightshade [16]; Solanum nigrum, 50 g ai/ha) of the same compound?
The pest or weed control at 50 g/ha was 90%.

What about the “Soil treatment herbicidal activity, Indian jointvetch” value (indian jointvetch [17]; 50 g ai/ha) of the same compound?
The value was 100.

What about the “Soil treatment herbicidal activity, velvet leaf” value (velvetleaf [18]; 50 g ai/ha) of the same compound?
Its value is 100.

And the “Soil treatment herbicidal activity, Cocklebur” value (cocklebur [19]; 50 g ai/ha)?
The value was 0.

What about the “Soil treatment herbicidal activity, Bindweed” value (bindweed [20]) of the same compound?
The value was 0.

What does the source list for `CCN(Cc1nnn(C)n1)c1nc(C(F)(F)F)ccc1C(=O)Nc1nnnn1C` [Compound No. 2-27, 2-(ethyl((2-methyl-2H-tetrazol-5-yl)methyl)amino)-N-(1-methyl-1H-tetrazol-5-yl)-6-(trifluoromethyl)nicotinamide]?
plant injury at 75 g/ha (sorghum [1]; Sorghum, 75 g ai/ha): 40%; pest or weed control at 75 g/ha (barnyard grass [2]; Echinochloa crus-galli, 75 g ai/ha): 80%; Foliar treatment herbicidal activity, quack grass (quack grass [3]; 75 g ai/ha): 0; pest or weed control at 75 g/ha (crabgrass [4]; 75 g ai/ha): 20%; pest or weed control at 75 g/ha (fall panicum [5]; 75 g ai/ha): 70%; Foliar treatment herbicidal activity, black nightshade (black nightshade [6]; 75 g ai/ha): 100; pest or weed control at 75 g/ha (indian jointvetch [7]; 75 g ai/ha): 70%; Foliar treatment herbicidal activity, velvet leaf (velvetleaf [8]; 75 g ai/ha, scale 0-100): 100; pest or weed control at 75 g/ha (cocklebur [9]; 75 g ai/ha): 98%; pest or weed control at 75 g/ha (bindweed [10]; 75 g ai/ha): 40%; plant injury at 75 g/ha (sorghum [11]; Sorghum, 75 g ai/ha): 50%; Soil treatment herbicidal activity, barnyard grass (barnyard grass [12]; 75 g ai/ha): 100; Soil treatment herbicidal activity, quack grass (quack grass [13]; 75 g ai/ha): 0; Soil treatment herbicidal activity, Fall panicum (fall panicum [15]; 75 g ai/ha): 100; Soil treatment herbicidal activity, black nightshade (black nightshade [16]; 75 g ai/ha): 100; Soil treatment herbicidal activity, Indian jointvetch (indian jointvetch [17]; 75 g ai/ha): 100; Soil treatment herbicidal activity, velvet leaf (velvetleaf [18]; 75 g ai/ha): 100; Soil treatment herbicidal activity, Cocklebur (cocklebur [19]; 75 g ai/ha): 100; pest or weed control at 75 g/ha (bindweed [20]; 75 g ai/ha): 98%
